Measurements as given in PMC4361473, “A New System for Profiling Drug-Induced Calcium Signal Perturbation in Human Embryonic Stem Cell–Derived Cardiomyocytes” (Journal of Biomolecular Screening, 2015).

Tests used:
[1] = system: Cytiva hSCCMs; assay: SALVO profiling of drug-evoked Ca2+ signal perturbation (fluo-4 confocal imaging); details: for EC20 AHI: 20% change from control in amplitude heterogeneity index; for EC20 AHI / EC20 Synch / EC20 ITN / EC20 THI / EC20 Rate: regression of Figure 3 data; for EC20 Synch: 20% change from control in intercellular synchronization; for EC20 ITN: 20% change from control in intertransient noise; for EC20 THI: 20% change from control in temporal heterogeneity index; for EC20 Rate: drug concentration producing a 20% change from control (no drug) in Ca2+ oscillation rate; for SALVO toxicity score, rank order of the extent of Ca2+ perturbation: five-parameter SALVO output integrated over 0.1-1000 nM, normalized to control; for Effect on Ca2+ handling (SALVO parameters): spontaneously oscillating Cytiva, concentrations up to 30 µM
Description: Cytiva hSCCMs were derived from monolayer differentiation of an H7 hESC cell line that had been expanded under feeder-free conditions and then subjected to a proprietary differentiation protocol (GE Healthcare, Piscataway, NJ, USA).[13] […] Cells were thawed and seeded into 7-mm^2 chambers created by the adherence of silicon gaskets (CultureWell MultiWell 3 mm in diameter, 1-mm-depth inserts [Life Technologies]) on glass-bottomed culture chambers (In Vitro Scientific, Sunnyvale, CA, USA) that had been precoated with Matrigel (BD Biosciences, Franklin Lakes, NJ, USA), Franklin Lakes, NJ, USA diluted 1:30 (v/v) in Knockout DMEM (Life Technologies, Carlsbad, CA, USA). […] Cells were allowed to adhere to the coverslip for 2 h before the dish was filled with RPMI/B27 (2 mL). Medium was exchanged every 48 h.
Cells were incubated with fluo-4 AM (5 µM) (Life Technologies) for 1 h at 37°C before coverslips were flooded with RPMI/B27 (2 mL). […] Cells were maintained at 37 °C throughout experiments. […] The application of caffeine (5 mM final concentration) was used to trigger sarcoplasmic reticulum (SR) Ca^2+ release and thereby estimate the intra-SR Ca^2+ store load.
Taking our lead from Uhlen’s method of using spectral analysis to investigate the organization of Ca^2+ signals,[14] we developed SALVO to decode the spatiotemporal patterning of Ca^2+ oscillations within individual cells and across multicellular populations. SALVO outputs 30 parameters that describe Ca^2+ signal organization,[15] but for the purposes of this study, we focused on five parameters: oscillation rate (rate, Hz) and four other parameters that quantify the amplitude and temporal patterning of Ca^2+ oscillation: (1) amplitude heterogeneity index (AHI) and (2) temporal heterogeneity index (THI), statistical assessments of signal amplitude and temporal variability within single cells, respectively; (3) intertransient noise (ITN), defined as the Ca^2+ signal variability occurring between Ca^2+ oscillations and that extends the use of signal variability (SV) to measure point-by-point differences in very low-amplitude Ca^2+ signals[6],[10],[12]; and (4) synchronization, an index of the temporal coincidence of Ca^2+ oscillation maxima occurring across cells in the population. The calculation of these parameters is described in Supplementary Figure S1. SALVO is implemented using a Python-based computer program.[15] The detection of signal maxima and minima over a 30-s period in data obtained from 6 to 20 cells in each instance was performed using SALVO’s autodetection algorithms (based on spline detect or threshold detection methods) or by manual assignation of the start, peak, and end of each Ca^2+ spike. SALVO outputs were archived and interrogated using a custom-built SQL-based database system (DB Miner, CHG, NCS, SBJ).
Baseline assessments of Ca^2+ signals in fluo-4–loaded cells prior to the addition of drug (control) were established as described above.
After each addition and following a period of equilibration (approximately 90 s), fluo-4–dependent Ca^2+ signals were acquired for 30 s. Using this protocol, the same population of cells was imaged throughout the entire drug addition sequence.
In all experiments, operators were blinded to the identities of the drugs under test throughout all phases of postexperimental data analysis.
Supplementary Table 2. EC20 values for Ca2+ perturbation.
Drug concentrations (nM) that produced a 20% change from control values (no drug) were calculated for each SALVO parameter from regression analysis of […]
The effective therapeutic plasma concentration of free drug (ETPCunbound, nM) was calculated in Supplementary Table 1.
Calculate percentage effect size (E) for each SALVO parameter, normalized to Ew = E x λ control conditions, at each drug concentration Effect size (E,%) λ
Cumulative Ew for drug concentrations of 0.1, 1, 10, 100 and 1000 nM for The relationship between E and λ is given by […]

[2] = system: Cytiva hSCCMs; assay: Whole-cell current-clamp recording of spontaneous action potentials (APD90); type: cell-based, human; details: drug at EC20 concentration, 3 min; Fridericia-corrected; blebbistatin-immobilized cells
Method: Cells in 35-mm glass-bottomed culture dishes containing a superfusion insert (AutoMate PCP-1; Digitimer Ltd., Welwyn Garden City, UK) were mounted on the stage of an inverted microscope (CKX-41; Olympus, Tokyo, Japan) and were superfused with normal Tyrode (NT) solution (containing [in mM] NaCl, KCl, MgCl2 [1], CaCl2 [2], HEPES [10], glucose; pH 7.4 with NaOH) or NT-containing drugs maintained at 37 °C using a heated jacket.
Cells were whole-cell clamped with 3- to 4-MΩ patches and an intrapipette solution (containing in [mM] KCl, MgCl2 [1.75], CaCl2 [5.37], EGTA [10], HEPES [10], and Na2ATP [4]; pH 7.2 with KOH) in current-clamp (IC) mode using a CV-7B headstage and MultiClamp 700B amplifier controlled by MultiClamp software (Molecular Devices, Sunnyvale, CA). Data were digitized and acquired using a Digidata 1322a card and pClamp software, respectively (Molecular Devices). Action potentials were sampled at a rate of 20 kHz and low pass (Bessel) filtered at 10 kHz.
Spontaneous cell contracture was terminated using blebbistatin (5 µM, 10 min), an agent that inhibits myofilament shortening and thereby negates patch-clamp recording instability but preserves normal Ca^2+ cycling.[20] […] Action potential (AP) recordings from blebbistatin-immobilized cells were taken under control (no-drug) conditions (1 min) and following the switch to drug-containing NT. APD90, corrected for AP cycle length using Fridericia’s method (APD90(corr) = APD90/cycle length^[…]), was calculated from five consecutive APs following a 3-min exposure of the cells to drug.
Figure 4. Investigating the effect of cardiovascular-active drugs on Cytiva APD90. (A) Cells were exposed to drugs at EC20 concentrations for 3 min (Suppl. Table S2). APD90 values were corrected for beat period using Fridericia’s algorithm. Data points represent individual paired experiments (n = 6). Representative control (gray) and drug-treated (black) action potential traces are shown. (B) APD90 plotted as the percentage change relative to the paired control value (no drug). *p < 0.05. **p < 0.01.

[3] = Effective therapeutic plasma concentration (ETPC, ETPCunbound); type: in vivo, human
Description: There is also the issue regarding the relevance of drug potency determined in vitro to clinical dosing in humans. Guo and colleagues[25],[27] used an impedance-derived index of arrhythmic beating in hSCCMs to derive a predicted proarrhythmic score (PPS) that took into account the therapeutically relevant total concentration of drug in human plasma (defined as Ceff). More recently, Clements and Thomas[13] used a similar approach to generate a predictive risk score (PRS) based on their measurement of field potential duration (FPD) in Cytiva.
Supplementary Table 1. Calculating the free plasma concentration of […]
described by Redfern et al. (Redfern et al. (2003) Cardiovasc. Res. 58:32-45) was used to calculate the levels of free drug (ETPCunbound). ETPC for nadolol and valdecoxib were from Krukemyer et al. (Pharm. Res. (1990) 9:953-956) and Yuan et al. (Drug Metab. Disp. (2002) 30:1013-1021), respectively. The values for drug-protein binding were obtained from DrugBank (www.drugbank.ca).

[4] = maximal effective therapeutic plasma concentration; ref Redfern et al. (2003) Cardiovasc. Res. 58:32-45; cited from earlier work
[5] = design: method as in DrugBank (www.drugbank.ca); details: from drug-protein binding values; ref DrugBank (www.drugbank.ca); cited from earlier work
[6] = categories assigned by Redfern and colleagues; cited from earlier work
[7] = system: hSCCM; design: method as in PMID 24052561; details: cited from earlier work
[8] = free plasma concentration calculated from ETPC and free drug %, Supplementary Table 1

Effect on APD90 (action potential duration) [2] | ETPCunbound ([3]; effective therapeutic plasma concentration of free drug, as listed in Supplementary Table 2) [nM] | ETPCunbound [3, 8] [nM] | PPS rank order ([1]; PPS = ETPCunbound/EC20) | SMILES | EC20 AHI [1] [nM] | EC20 Synch [1] [nM] | EC20 ITN [1] [nM] | EC20 THI [1] [nM] | Predicted proarrhythmic score (PPS) ([1]; PPS = ETPCunbound/EC20) | EC20 Rate [1] [nM] | SALVO toxicity score, rank order of the extent of Ca2+ perturbation [1] | Effect on Ca2+ handling (SALVO parameters) [1] | ETPC [4] [nM] | Free drug [5] [%] | TdP risk category [6] | Hazard identification by impedance measurements [7]
increased APD90 | 8 | 0.2 | – | COc1ccc(CCN2CCC(Nc3nc4ccccc4n3Cc3ccc(F)cc3)CC2)cc1 [Astemizole, astemizole] | 100 | 15 | 320 | 55 | < 1 | 50 | astemizole > thioridazine > cisapride > flecainide > valdecoxib > sotalol > nadolol | large effect sizes in multiple parameters | 8 | 2 | category 2 | –
increased APD90 | – | 3 | thioridazine > cisapride > valdecoxib | COc1cc(N)c(Cl)cc1C(=O)NC1CCN(CCCOc2ccc(F)cc2)CC1OC (centres unmarked) [Cisapride, cisapride] | 40 | 5 | > 30000 | 105 | – | 445 | astemizole > thioridazine > cisapride > flecainide > valdecoxib > sotalol > nadolol | large effect sizes in multiple parameters | 129 | 2 | category 2 | –
– | – | – | – | CS(=O)(=O)c1ccc(C2=C(c3ccccc3)C(=O)OC2)cc1 [rofecoxib] | – | – | – | – | – | – | – | inconsistent bioactivity | – | – | – | failed to identify the potential hazard
